Source: patent publication US11478451B1, “Macrocyclic chlorine substituted indole derivatives” (Bayer Aktiengesellschaft, priority 2017, dated 2022)
Several values for one entry are separate records, joined by “and”; a condition that tells them apart may be missing. Equal values may be shown once. Where a name gives a salt, the structure may show the parent alone. Read-outs that look alike come from different tables or passages of the source.

Columns and labels:
[1] = molecular target: BCL-2 (Homo sapiens (Human), UniProt P10415); assay: Protein-protein interaction assay BCL-2/Bad BH3 peptide (BCL-2 assay), TR-FRET; format: binding; conditions: IC50, median; BCL-2/Bad BH3 TR-FRET
Chain of BCL-2 (P10415 1-211): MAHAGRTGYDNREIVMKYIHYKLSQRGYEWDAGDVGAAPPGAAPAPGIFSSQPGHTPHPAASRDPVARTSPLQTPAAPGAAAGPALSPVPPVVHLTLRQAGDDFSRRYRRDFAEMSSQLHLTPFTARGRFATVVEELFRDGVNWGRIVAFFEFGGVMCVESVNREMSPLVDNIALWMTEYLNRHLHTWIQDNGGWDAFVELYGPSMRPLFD
Protocol: The dose-dependent inhibition by the compounds described in this invention of the interaction between BCL-2 and the BH3 domain of Bad (both human) was determined using a steady state binding competition assay with time-resolved fluorescence energy transfer (TR-FRET) readout.
(§1) For that, 100-fold concentrated DMSO solutions were prepared by serial dilutions (1:3.4) of a 2 mM stock solution in a clear, 384-well microtiter plate (Greiner Bio-One, Frickenhausen, Germany). From there, 50 nl were transferred in a dark test plate (Greiner Bio-One, Frickenhausen, Germany). […] This was followed by a 10-minute incubation step at 22° C. for pre-equilibration of the putative complex between His-BCL-2 and the compounds.
(§2) The mixture was incubated in the dark for one hour at 22° C. and then overnight at 4° C.
(§3) The resulting data (ratio) were normalized, taking 0% inhibition as the mean value of control measurements (usually 32 data points) where all reagents were included. In this case 50 nl DMSO were used instead of compounds. […] IC50 values were determined by regression analysis based on a 4 parameter equation (minimum, maximum, IC50, Hill; Y=Max+(Min−Max)/(1+(X/IC50)^Hill) using the Screener Software (Genedata).

[2] = system: MV-4-11 cells; assay: Antiproliferation assay (CellTiter-Glo, 72 h), MV-4-11; format: cell-based; conditions: IC50, median, MV-4-11, 72 h, read-out: Antiproli MV-4-11 [M] median
How it was run: (§4)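 Treated cells sat 72 h in a humidified 37 °C incubator, outer wells unused, before CellTiter-Glo reagent and a 10 min wait preceded luminescence reading; identical measurement of a parallel day 0 plate defined time zero.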

[3] = system: SUDHL5 cells; assay: Induction of caspase-3/7 activity (Caspase-Glo 3/7), SUDHL5; format: cell-based; conditions: EC50, median, SUDHL5, 3 h treatment
How it was run: (§5)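 Read-out: Caspase-Glo 3/7 signal, background-corrected against medium-only wells, taken after cells had been incubated with compounds for 3 h at 37 °C.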

[4] = system: SUDHL10 cells
[5] = system: SUDHL10 cells; assay: Induction of caspase-3/7 activity (Caspase-Glo 3/7), SUDHL10; format: cell-based; conditions: EC50, median, SUDHL10, 3 h treatment
How it was run: as §5

[6] = molecular target: BCL-XL (Homo sapiens (Human), UniProt Q07817); assay: Protein-protein interaction assay BCL-XL/Bad BH3 peptide (BCL-XL assay), TR-FRET; format: binding; conditions: IC50, median
Chain of BCL-XL (Q07817 1-212): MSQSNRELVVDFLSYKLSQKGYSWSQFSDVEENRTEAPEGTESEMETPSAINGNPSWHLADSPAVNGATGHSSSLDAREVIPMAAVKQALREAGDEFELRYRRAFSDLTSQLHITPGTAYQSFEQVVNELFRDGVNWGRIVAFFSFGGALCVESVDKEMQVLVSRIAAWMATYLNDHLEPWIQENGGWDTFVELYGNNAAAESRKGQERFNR
Protocol: The dose-dependent inhibition by the compounds described in this invention of the interaction between BCL-XL and the BH3 domain of Bad (both human) was determined using a steady state binding competition assay with time-resolved fluorescence energy transfer (TR-FRET) readout.
as §1, with “His-BCL-XL” for “His-BCL-2”
as §2, §3

[7] = molecular target: MCL-1 (Homo sapiens (Human), UniProt Q07820, K194A/K197A/R201A); assay: Protein-protein interaction assay MCL-1/Noxa BH3 peptide (MCL-1 assay), TR-FRET; format: binding; conditions: IC50, median; MCL-1/Noxa BH3 TR-FRET
Chain of MCL-1 (Q07820 whole entry K194A/K197A/R201A, looked up, the tested form may be a part): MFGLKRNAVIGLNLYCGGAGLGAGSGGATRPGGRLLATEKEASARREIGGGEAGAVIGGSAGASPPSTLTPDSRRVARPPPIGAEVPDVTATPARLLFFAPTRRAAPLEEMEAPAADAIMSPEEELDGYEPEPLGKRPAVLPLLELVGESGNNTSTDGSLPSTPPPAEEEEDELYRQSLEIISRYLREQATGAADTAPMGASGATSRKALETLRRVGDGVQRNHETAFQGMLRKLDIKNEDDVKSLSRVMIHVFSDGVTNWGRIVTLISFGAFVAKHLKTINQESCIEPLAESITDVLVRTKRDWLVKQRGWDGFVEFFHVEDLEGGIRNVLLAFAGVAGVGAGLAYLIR
Protocol: The dose-dependent inhibition by the compounds described in this invention of the interaction between MCL-1 and the BH3 domain of Noxa (both human) was determined using a steady state binding competition assay with time-resolved fluorescence energy transfer (TR-FRET) readout. […] The MBP-MCL-1 was purchased from Beryllium (Bedford, Mass., USA). The expression and purification of this protein construct has been described elsewhere (DOI:10.1371/journal.pone.0125010). The Noxa BH3-derived peptide can be obtained from e.g. Biosyntan (Berlin, Germany), 50812.1.
as §1, with “MBP-MCL-1” for “His-BCL-2”
as §2, §3

[8] = system: SUDHL5 cells
Protocol: (§11) Therefore, cytotoxicity assays were run in parallel in SUDHL5 and SUDHL10 cells.
(§12) The different cell lines were plated in culture medium (RPMI 1640 [GIBCO #22400-089] supplemented with 10% Fetal Bovine Serum) at a density of 3,300 cells in 30 μL/well in a sterile, solid black, flat bottom, polystyrene, TC-treated 384-well microplate (Corning #3571) using Multidrop Combi Reagent Dispenser. As a control, medium without cells was also added to the plate. Cells were incubated in a humidified incubator at 37° C. overnight. […] Rim wells were excluded. The cells were incubated for 5 h hours in a humidified incubator at 37° C. After this incubation, 30 μL of CellTiter-Glo® Luminescent Cell Viability reagent (Promega, G7573) was added to each well using the Multidrop Combi Reagent Dispenser, followed by 15 min incubation on a shaker at room temperature. Finally, luminescence was read at 0.1 ms, with a gain of 3000 using the PHERAstar FS microplate reader (BMG Labtech).

[9] = system: SUDHL5 cells; assay: Antiproliferation assay (CellTiter-Glo, 72 h), SUDHL5; format: cell-based; conditions: IC50, median, SUDHL5, 72 h, read-out: Antiproli SUDHL5 [M] (median)
How it was run: as §4

[10] = system: SK-BR-3 cells; assay: Antiproliferation assay (CellTiter-Glo, 72 h), SK-BR-3; format: cell-based; conditions: SK-BR-3, 72 h, IC50, median, read-out: Antiproli SK-BR-3 [M] median
Protocol: (§6) Assessment of the Anti-Proliferative Effect of Compounds in Different Cell Lines
(§7) The impact of compounds on the proliferation of different cell lines was assessed using the CellTiter-Glo® Luminescent Cell Viability reagent from Promega (G7573).
(§8) In parallel, cells were plated in a reference (day 0) plate for time zero determination.
(§9) Rim wells were excluded. The cells were incubated for 72 h hours in a humidified incubator at 37° C. The day 0 plate was measured by adding 30 μL/well of CTG solution (CellTiter-Glo® Luminescent Cell Viability reagent, Promega G7573) to time zero wells in the reference plate followed by a 10 minutes incubation and luminescence reading at 0.1 ms. using the PHERAstar FS microplate reader (BMG Labtech).
(§10) After 72 h incubation, the treated plates were measured in the same way as the day 0 plate mentioned above.

[11] = system: HMC-1-8 cells; assay: Antiproliferation assay (CellTiter-Glo, 72 h), HMC-1-8; format: cell-based; conditions: IC50, median, HMC-1-8, 72 h, read-out: Antiproli HMC-1-8 [M] median
How it was run: as §4

[12] = system: SUDHL5 cells; assay: Induction of cytotoxicity (CellTiter-Glo, 5 h), SUDHL5; conditions: SUDHL5, 5 h
Protocol: as §11, §12

[13] = system: A2058 cells; assay: Antiproliferation assay (CellTiter-Glo, 72 h), A2058; format: cell-based; conditions: A2058, 72 h, read-out: Antiproli A2058 [M] median
Protocol: as §6, §7, §8, §9, §10

[14] = system: NCI-H23 cells; assay: Antiproliferation assay (CellTiter-Glo, 72 h), NCI-H23; format: cell-based; conditions: NCI-H23, 72 h, read-out: Antiproli NCI-H23 [M] median
Protocol: as §6, §7, §8, §9, §10

[15] = system: SUDHL10 cells; assay: Induction of cytotoxicity (CellTiter-Glo, 5 h), SUDHL10; conditions: SUDHL10, 5 h
[16] = system: AMO-1 cells; assay: Antiproliferation assay (CellTiter-Glo, 72 h), AMO-1; format: cell-based; conditions: IC50, median, AMO-1, 72 h, read-out: Antiproli AMO-1 [M] median
How it was run: as §4

[17] = system: SUDHL10 cells; assay: Antiproliferation assay (CellTiter-Glo, 72 h), SUDHL10; format: cell-based; conditions: IC50, median, SUDHL10, 72 h, read-out: Antiproli SUDHL10 [M] (median)
Protocol: as §6, §7, §8, §9, §10

[18] = system: DMS-114 cells; assay: Antiproliferation assay (CellTiter-Glo, 72 h), DMS-114; format: cell-based; conditions: IC50, median; DMS-114, 72 h; read-out: Antiproli DMS-114 [M] median
How it was run: as §4

[19] = system: SNU-389 cells; assay: Antiproliferation assay (CellTiter-Glo, 72 h), SNU-389; format: cell-based; conditions: IC50, median; SNU-389, 72 h; read-out: Antiproli SNU-389 [M] median
How it was run: as §4

[20] = system: T47D cells; assay: Antiproliferation assay (CellTiter-Glo, 72 h), T47D; format: cell-based; conditions: IC50, median, T47D (head printed T4713), read-out: Antiproli T4713 [M] median
Protocol: as §6, §7, §8, §9, §10

[21] = read-out: Cytotox SUDHL5 [M] (median), IC50, median
[22] = read-out: Cytotox SUDHL10 [M] (median), IC50, median

| Compound | IC50 [2] [M] | EC50 [3] [nM] | EC50 [5] [nM] | IC50 [9] [M] | IC50 [10] [M] | IC50 [12, 21] [M] | IC50 [15, 22] [M] | IC50 [16] [M] | IC50 [11] [M] | IC50 ([13]; IC50, median) [M] | IC50 [18] [M] | IC50 [19] [M] | other results |
| --- | --- | --- | --- | --- | --- | --- | --- | --- | --- | --- | --- | --- | --- |
| CCc1c2c(nn1C)COC/C=C\Cn1c(C(=O)O)c(CCCOc3cccc4ccccc34)c3ccc(Cl)c-2c31 (racemic) [Example 18, (rac)-(11Z)-4-chloro-3-ethyl-2-methyl-7-[3-(naphthalen-1-yloxy)propyl]-2,10,13,15-tetrahydropyrazolo[4′,3′:9,10][1,6]oxazacycloundecino[8,7,6-hi]indole-8-carboxylic acid] | 4.71e-06 | 1100 | 1300 | 1.4e-06 |  |  |  |  |  |  |  |  | IC50 [1]: > 20000 nM and 19000 nM and 20000 nM; IC50 [4]: 1300 nM; IC50 [6]: > 20000 nM; IC50 [7]: 1.3 nM; IC50 [8]: 1200 nM |
| Cc1c2c(nn1C)COCCCCn1c(C(=O)O)c(CCCOc3cccc4ccccc34)c3ccc(Cl)c-2c31 (racemic) [Example 25, (rac)-4-chloro-2,3-dimethyl-7-[3-(naphthalen-1-yloxy)propyl]-2,10,11,12,13,15-hexahydropyrazolo[4′,3′:9,10][1,6]oxazacycloundecino[8,7,6-hi]indole-8-carboxylic acid] |  |  |  |  |  |  |  |  |  |  |  |  | IC50 ([10]; Homo sapiens): 1.29e-05 M; IC50 ([11]; 72 h): 6.5e-06 M; IC50 ([12]; Homo sapiens, SU-DHL-5, 5 h, read-out: Cytotox SUDHL5 [M] (median), IC50, median): 5.3e-07 M; IC50 ([13]; Homo sapiens): 2.19e-05 M; IC50 ([2]; Homo sapiens, MV4-11, 72 h): 2.78e-06 M; EC50 ([3]; Homo sapiens, SU-DHL-5, 3 h): 390 nM; EC50 ([5]; Homo sapiens, SU-DHL10, 3 h): 1200 nM; IC50 ([14]; Homo sapiens): 6.01e-06 M; IC50 ([15]; Homo sapiens, SU-DHL10, 5 h, read-out: Cytotox SUDHL10 [M] (median), IC50, median): 9.3e-07 M; IC50 ([16]; Homo sapiens, AMO1, 72 h): 1.3e-06 M; IC50 ([9]; Homo sapiens, SU-DHL-5, 72 h): 5.6e-07 M |
| CCc1nn(CCN2CCOCC2)c2c1-c1c(Cl)ccc3c(CCCOc4cccc5ccccc45)c(C(=O)O)n(c13)CCCCOC2 (single isomer, unassigned; enantiomer 1) [Example 9, 4-chloro-3-ethyl-1-[2-(morpholin-4-yl)ethyl]-7-[3-(naphthalen-1-yloxy)propyl]-1,10,11,12,13,15-hexahydropyrazolo[4′,3′:9,10][1,6]oxazacycloundecino[8,7,6-hi]indole-8-carboxylic acid-N-ethylethanamine salt (Enantiomer 1)] | 8.23e-07 | 270 | 330 | 3.7e-07 | 1.08e-06 | 2.9e-07 | 3.4e-07 | 8.7e-07 |  |  |  |  | IC50 ([17]; Homo sapiens, SU-DHL10, 72 h): 2.7e-07 M |
| Cc1c2c(nn1C)COCCCCn1c(C(=O)O)c(CCCOc3cccc4cc(F)ccc34)c3ccc(Cl)c-2c31 (single isomer, unassigned; enantiomer 1) [Example 15, (+)-4-chloro-7-{3-[(6-fluoronaphthalen-1-yl)oxy]propyl}-2,3-dimethyl-2,10,11,12,13,15-hexahydropyrazolo[4′,3′:9,10][1,6]oxazacycloundecino[8,7,6-hi]indole-8-carboxylic acid-N-ethylethanamine salt (Enantiomer 1)] | 4.61e-07 | 120 | 150 | 1.9e-07 |  | 1.4e-07 | 2.3e-07 | 5.3e-07 | 1.4e-06 | 5.86e-06 | 6.42e-07 | 9.28e-07 | IC50 [17]: 2e-07 M; IC50 [20]: 1.19e-05 M |
| Cc1c2c(nn1C)COCCCCn1c(C(=O)O)c(CCCOc3cccc4ccccc34)c3ccc(Cl)c-2c31 (single isomer, unassigned; enantiomer 1) [Example 26, 4-chloro-2,3-dimethyl-7-[3-(naphthalen-1-yloxy)propyl]-2,10,11,12,13,15-hexahydropyrazolo-[4′,3′:9,10][1,6]oxazacycloundecino[8,7,6-hi]indole-8-carboxylic acid-N-ethylethanamine salt (Enantiomer 1)] | 1.81e-06 | 250 | 410 | 5.8e-07 | 3.3e-06 | 4.6e-07 | 5e-07 | 1e-06 | 2.9e-06 | 1.49e-05 | 1.76e-06 | 1.66e-06 | IC50 ([14]; IC50, median): 2.32e-06 M |
